# Results taken from patent US20230221325A1, “SOLUBLE CD28 LEVELS AFTER IMMUNOTHERAPY” (BIOND BIOLOGICS LTD., priority 2019, published 2023).
# Legend:
# [1] = system: CMV-stimulated PBMC; test: CMV activation of PBMCs for the generation of soluble CD28 (ELISA); type: cell-based, human; conditions: 7 days CMV stimulation, with anti-PD-1 (Keytruda) 5 μg/mL, inhibitor 1 μM
# [2] = system: SEB stimulated human PBMC; test: SEB activation of PBMCs for the generation of soluble CD28 (ELISA); type: cell-based
# [3] = system: melanoma patients; test: Survival of melanoma patients on anti-PD1 therapy by sCD28 level before therapy; type: in vivo, human
# Description: To further understand the impact of sCD28 levels on cancer progression during immunotherapy, more than 100 serum samples from melanoma patients prior to initiation of anti-PD1 therapy (Nivolumab, NCT01176461) were tested for sCD28 levels by ELISA. Survival was monitored throughout therapy and a survival function was plotted comparing subjects with high and low levels of sCD28 before therapy (FIG. 1).
compound,measurement,setting,value
CNC(=O)[C@@H](NC(=O)[C@H](CCCc1ccccc1)[C@H](C)N(O)C=O)C(C)(C)C [GI254023X],sCD28 increase caused by anti-PD-1,[1],abrogated the sCD28 increase caused by immunotherapy
"Keytruda: Anti-PD-1 (Keytruda, Merck)",sCD28 in the media (increase induced by SEB),"[2]; PBMCs from two healthy donors, SEB for 8 days, anti-PD-1 5 μg/mL vs isotype control",enhanced
same,"sCD28 increase caused by the immunotherapy, significance","[2]; days 6-8, vs isotype control",statistically significant
Nivolumab: anti-PD1 therapy (NCT01176461),median survival,[3]; subjects with high levels of sCD28 before therapy,514 days
same,median survival,[3]; subjects with low levels of sCD28 (below 2 ng/mL) before therapy,659 days
